Q: For O=C(O)c1ccco1, which solubility (mole fraction) (in 1,2-dichloroethane, 283.15 K) is on record?
A: Its solubility (mole fraction) is 0.014.

Q: And the solubility (mole fraction) (in 1,2-dichloroethane, 288.15 K)?
A: Its solubility (mole fraction) is 0.017.

Q: What about the solubility (mole fraction) (in 1,2-dichloroethane, 293.15 K) of the same compound?
A: Its solubility (mole fraction) is 0.023.

Q: What about the solubility (mole fraction) (in 1,2-dichloroethane, 298.15 K) of the same compound?
A: The solubility (mole fraction) was 0.029.

Q: What about the solubility (mole fraction) (in 1,2-dichloroethane, 303.15 K) of the same compound?
A: Its solubility (mole fraction) is 0.035.

Q: What about the solubility (mole fraction) (in 1,2-dichloroethane, 308.15 K) of the same compound?
A: The solubility (mole fraction) was 0.046.

Q: And the solubility (mole fraction) (in 1,2-dichloroethane, 313.15 K)?
A: Its solubility (mole fraction) is 0.057.

Q: And the solubility (mole fraction) (in 1,2-dichloroethane, 318.15 K)?
A: The solubility (mole fraction) was 0.068.

Q: And the solubility (mole fraction) (in 1,2-dichloroethane, 323.15 K)?
A: The solubility (mole fraction) was 0.084.

Q: What about the solubility (mole fraction) (in 1,2-dichloroethane, 328.15 K) of the same compound?
A: The solubility (mole fraction) was 0.103.

Q: What about the solubility (mole fraction) (in 1,2-dichloroethane, 333.15 K) of the same compound?
A: Its solubility (mole fraction) is 0.126.

Q: And the solubility (mole fraction) (in MIBK, 283.15 K)?
A: The solubility (mole fraction) was 0.095.

Q: And the solubility (mole fraction) (in MIBK, 288.15 K)?
A: The solubility (mole fraction) was 0.11.

Q: And the solubility (mole fraction) (in MIBK, 293.15 K)?
A: Its solubility (mole fraction) is 0.122.

Q: What about the solubility (mole fraction) (in MIBK, 298.15 K) of the same compound?
A: Its solubility (mole fraction) is 0.137.

Q: And the solubility (mole fraction) (in MIBK, 303.15 K)?
A: The solubility (mole fraction) was 0.154.

Q: What about the solubility (mole fraction) (in MIBK, 308.15 K) of the same compound?
A: The solubility (mole fraction) was 0.177.

Q: What about the solubility (mole fraction) (in MIBK, 313.15 K) of the same compound?
A: Its solubility (mole fraction) is 0.195.

Q: What about the solubility (mole fraction) (in MIBK, 318.15 K) of the same compound?
A: Its solubility (mole fraction) is 0.211.

Q: What about the solubility (mole fraction) (in MIBK, 323.15 K) of the same compound?
A: Its solubility (mole fraction) is 0.237.

Q: What about the solubility (mole fraction) (in MIBK, 328.15 K) of the same compound?
A: Its solubility (mole fraction) is 0.26.

Q: What about the solubility (mole fraction) (in MIBK, 333.15 K) of the same compound?
A: The solubility (mole fraction) was 0.286.

Q: What about the solubility (mole fraction) (in acetonitrile, 283.15 K) of the same compound?
A: Its solubility (mole fraction) is 0.046.

Q: What about the solubility (mole fraction) (in acetonitrile, 288.15 K) of the same compound?
A: The solubility (mole fraction) was 0.057.

Q: And the solubility (mole fraction) (in acetonitrile, 293.15 K)?
A: The solubility (mole fraction) was 0.064.

Q: And the solubility (mole fraction) (in acetonitrile, 298.15 K)?
A: Its solubility (mole fraction) is 0.077.

Q: And the solubility (mole fraction) (in acetonitrile, 303.15 K)?
A: Its solubility (mole fraction) is 0.093.

Q: And the solubility (mole fraction) (in acetonitrile, 308.15 K)?
A: The solubility (mole fraction) was 0.115.

Q: And the solubility (mole fraction) (in acetonitrile, 313.15 K)?
A: The solubility (mole fraction) was 0.132.

Q: And the solubility (mole fraction) (in acetonitrile, 318.15 K)?
A: Its solubility (mole fraction) is 0.155.

Q: What about the solubility (mole fraction) (in acetonitrile, 323.15 K) of the same compound?
A: Its solubility (mole fraction) is 0.182.

Q: And the solubility (mole fraction) (in acetonitrile, 328.15 K)?
A: The solubility (mole fraction) was 0.208.

Q: What about the solubility (mole fraction) (in acetonitrile, 333.15 K) of the same compound?
A: The solubility (mole fraction) was 0.242.

Q: What about the solubility (mole fraction) (in diisopropyl ether, 283.15 K) of the same compound?
A: The solubility (mole fraction) was 0.035.

Q: What about the solubility (mole fraction) (in diisopropyl ether, 288.15 K) of the same compound?
A: Its solubility (mole fraction) is 0.041.

Q: And the solubility (mole fraction) (in diisopropyl ether, 293.15 K)?
A: The solubility (mole fraction) was 0.048.

Q: And the solubility (mole fraction) (in diisopropyl ether, 298.15 K)?
A: The solubility (mole fraction) was 0.054.

Q: What about the solubility (mole fraction) (in diisopropyl ether, 303.15 K) of the same compound?
A: The solubility (mole fraction) was 0.061.

Q: What about the solubility (mole fraction) (in diisopropyl ether, 308.15 K) of the same compound?
A: Its solubility (mole fraction) is 0.069.

Q: What about the solubility (mole fraction) (in diisopropyl ether, 313.15 K) of the same compound?
A: The solubility (mole fraction) was 0.077.

Q: And the solubility (mole fraction) (in diisopropyl ether, 318.15 K)?
A: The solubility (mole fraction) was 0.087.

Q: And the solubility (mole fraction) (in diisopropyl ether, 323.15 K)?
A: The solubility (mole fraction) was 0.097.

Q: And the solubility (mole fraction) (in diisopropyl ether, 328.15 K)?
A: The solubility (mole fraction) was 0.108.

Q: What about the solubility (mole fraction) (in diisopropyl ether, 333.15 K) of the same compound?
A: Its solubility (mole fraction) is 0.121.

Q: And the solubility (mole fraction) (in methanol, 283.15 K)?
A: The solubility (mole fraction) was 0.347.

Q: And the solubility (mole fraction) (in methanol, 288.15 K)?
A: Its solubility (mole fraction) is 0.393.

Q: What about the solubility (mole fraction) (in methanol, 293.15 K) of the same compound?
A: Its solubility (mole fraction) is 0.428.

Q: And the solubility (mole fraction) (in methanol, 298.15 K)?
A: The solubility (mole fraction) was 0.451.

Q: What about the solubility (mole fraction) (in methanol, 303.15 K) of the same compound?
A: Its solubility (mole fraction) is 0.48.

Q: What about the solubility (mole fraction) (in methanol, 308.15 K) of the same compound?
A: Its solubility (mole fraction) is 0.504.

Q: What about the solubility (mole fraction) (in methanol, 313.15 K) of the same compound?
A: Its solubility (mole fraction) is 0.524.

Q: What about the solubility (mole fraction) (in methanol, 318.15 K) of the same compound?
A: The solubility (mole fraction) was 0.551.

Q: And the solubility (mole fraction) (in methanol, 323.15 K)?
A: The solubility (mole fraction) was 0.571.

Q: And the solubility (mole fraction) (in methanol, 328.15 K)?
A: Its solubility (mole fraction) is 0.607.

Q: And the solubility (mole fraction) (in methanol, 333.15 K)?
A: The solubility (mole fraction) was 0.643.

Q: What about the solubility (mole fraction) (in n-hexane, 298.15 K) of the same compound?
A: Its solubility (mole fraction) is 0.001.

Q: And the solubility (mole fraction) (in n-hexane, 303.15 K)?
A: Its solubility (mole fraction) is 0.001.

Q: And the solubility (mole fraction) (in n-hexane, 308.15 K)?
A: Its solubility (mole fraction) is 0.001.

Q: What about the solubility (mole fraction) (in n-hexane, 313.15 K) of the same compound?
A: The solubility (mole fraction) was 0.002.

Q: And the solubility (mole fraction) (in n-hexane, 318.15 K)?
A: The solubility (mole fraction) was 0.002.

Q: And the solubility (mole fraction) (in n-hexane, 323.15 K)?
A: The solubility (mole fraction) was 0.003.

Q: What about the solubility (mole fraction) (in n-hexane, 328.15 K) of the same compound?
A: Its solubility (mole fraction) is 0.004.

Q: And the solubility (mole fraction) (in n-hexane, 333.15 K)?
A: Its solubility (mole fraction) is 0.005.

Q: And the solubility (mole fraction) (in toluene, 283.15 K)?
A: The solubility (mole fraction) was 0.005.

Q: What about the solubility (mole fraction) (in toluene, 288.15 K) of the same compound?
A: The solubility (mole fraction) was 0.006.

Q: What about the solubility (mole fraction) (in toluene, 293.15 K) of the same compound?
A: The solubility (mole fraction) was 0.008.

Q: What about the solubility (mole fraction) (in toluene, 298.15 K) of the same compound?
A: The solubility (mole fraction) was 0.011.

Q: And the solubility (mole fraction) (in toluene, 303.15 K)?
A: Its solubility (mole fraction) is 0.013.

Q: What about the solubility (mole fraction) (in toluene, 308.15 K) of the same compound?
A: Its solubility (mole fraction) is 0.017.

Q: What about the solubility (mole fraction) (in toluene, 313.15 K) of the same compound?
A: The solubility (mole fraction) was 0.021.

Q: And the solubility (mole fraction) (in toluene, 318.15 K)?
A: The solubility (mole fraction) was 0.027.

Q: What about the solubility (mole fraction) (in toluene, 323.15 K) of the same compound?
A: The solubility (mole fraction) was 0.034.

Q: And the solubility (mole fraction) (in toluene, 328.15 K)?
A: Its solubility (mole fraction) is 0.045.

Q: What about the solubility (mole fraction) (in toluene, 333.15 K) of the same compound?
A: The solubility (mole fraction) was 0.056.
